From publication PMC12808100, “The non-catalytic DNA polymerase ε subunit is an NPF motif recognition protein” (Nature Communications, 2025) come the findings set out here.

Each structure is given as a SMILES string. Residues, ends and D or L forms follow the SMILES beside them.

For one assay, the target named is T1, TXNL4B (Homo sapiens, UniProt Q9NX01).
T1 sequence (Q9NX01 1-149): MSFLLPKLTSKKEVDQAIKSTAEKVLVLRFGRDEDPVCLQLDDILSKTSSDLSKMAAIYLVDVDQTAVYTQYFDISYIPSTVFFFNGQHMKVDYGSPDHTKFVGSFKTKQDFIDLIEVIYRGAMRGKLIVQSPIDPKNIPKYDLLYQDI
As to the kind of experiment: nHU-MS peptide bait, prey TXNL4B.

The target of another assay is T2, TXNRD3 (Homo sapiens, UniProt Q86VQ6).
T2 sequence (Q86VQ6 1-643): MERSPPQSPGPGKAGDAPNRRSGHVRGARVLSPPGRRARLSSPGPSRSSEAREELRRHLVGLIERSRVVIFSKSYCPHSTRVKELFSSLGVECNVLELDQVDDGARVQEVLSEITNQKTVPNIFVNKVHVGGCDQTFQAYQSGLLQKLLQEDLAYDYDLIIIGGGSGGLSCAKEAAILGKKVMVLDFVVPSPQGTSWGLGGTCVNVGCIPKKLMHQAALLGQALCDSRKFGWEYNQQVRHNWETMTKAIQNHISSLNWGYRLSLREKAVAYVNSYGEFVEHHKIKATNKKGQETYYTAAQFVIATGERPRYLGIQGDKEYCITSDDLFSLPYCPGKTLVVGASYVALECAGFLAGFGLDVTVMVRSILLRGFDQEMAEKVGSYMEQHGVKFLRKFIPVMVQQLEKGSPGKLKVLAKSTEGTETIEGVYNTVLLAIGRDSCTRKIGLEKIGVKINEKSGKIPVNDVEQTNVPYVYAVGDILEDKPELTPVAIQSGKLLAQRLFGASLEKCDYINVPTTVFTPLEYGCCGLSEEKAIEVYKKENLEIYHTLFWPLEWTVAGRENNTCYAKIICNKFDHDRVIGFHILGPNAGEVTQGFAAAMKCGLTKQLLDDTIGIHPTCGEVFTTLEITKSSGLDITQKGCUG
As to the kind of experiment: nHU-MS peptide bait, prey TXNRD3.

The target in another assay is T3, ASXL2 (Homo sapiens, UniProt Q76L83).
T3 sequence (Q76L83 1-1435): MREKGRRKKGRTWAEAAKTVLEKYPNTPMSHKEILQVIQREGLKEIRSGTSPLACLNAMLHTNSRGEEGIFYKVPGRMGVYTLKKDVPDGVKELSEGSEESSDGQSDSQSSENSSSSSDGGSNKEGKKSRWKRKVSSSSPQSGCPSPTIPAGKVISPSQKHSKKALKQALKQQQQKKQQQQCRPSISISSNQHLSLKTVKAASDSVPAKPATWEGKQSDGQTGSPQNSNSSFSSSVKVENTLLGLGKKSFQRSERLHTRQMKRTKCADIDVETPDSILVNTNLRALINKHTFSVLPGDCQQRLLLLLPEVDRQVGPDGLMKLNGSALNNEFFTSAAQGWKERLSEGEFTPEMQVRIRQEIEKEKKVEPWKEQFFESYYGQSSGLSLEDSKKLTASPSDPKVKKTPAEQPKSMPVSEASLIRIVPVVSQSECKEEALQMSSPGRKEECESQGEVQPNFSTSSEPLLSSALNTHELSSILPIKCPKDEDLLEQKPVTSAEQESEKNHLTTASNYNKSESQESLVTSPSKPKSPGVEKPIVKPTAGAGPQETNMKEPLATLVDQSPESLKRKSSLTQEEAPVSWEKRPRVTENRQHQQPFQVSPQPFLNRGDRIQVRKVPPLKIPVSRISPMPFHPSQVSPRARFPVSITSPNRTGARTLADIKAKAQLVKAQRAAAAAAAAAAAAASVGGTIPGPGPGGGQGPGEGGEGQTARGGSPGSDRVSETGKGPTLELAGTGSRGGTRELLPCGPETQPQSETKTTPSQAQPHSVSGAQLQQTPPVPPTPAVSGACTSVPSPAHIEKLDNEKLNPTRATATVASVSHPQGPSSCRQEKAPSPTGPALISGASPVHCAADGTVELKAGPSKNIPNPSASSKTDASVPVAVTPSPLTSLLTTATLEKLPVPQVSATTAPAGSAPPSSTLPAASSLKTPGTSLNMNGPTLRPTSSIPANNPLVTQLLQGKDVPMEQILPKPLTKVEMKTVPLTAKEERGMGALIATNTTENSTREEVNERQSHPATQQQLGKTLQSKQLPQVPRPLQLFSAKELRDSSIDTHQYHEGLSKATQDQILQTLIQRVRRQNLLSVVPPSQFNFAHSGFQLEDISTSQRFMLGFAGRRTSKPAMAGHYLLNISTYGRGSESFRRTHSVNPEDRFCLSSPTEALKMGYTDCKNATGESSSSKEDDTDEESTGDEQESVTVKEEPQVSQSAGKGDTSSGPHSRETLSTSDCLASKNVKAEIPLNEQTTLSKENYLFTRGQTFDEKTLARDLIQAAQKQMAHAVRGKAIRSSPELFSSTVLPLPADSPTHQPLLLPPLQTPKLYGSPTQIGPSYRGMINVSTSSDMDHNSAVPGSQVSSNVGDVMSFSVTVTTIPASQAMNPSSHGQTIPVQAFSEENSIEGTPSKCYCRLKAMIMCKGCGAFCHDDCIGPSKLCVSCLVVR
As to the kind of experiment: nHU-MS peptide bait, prey ASXL2.

For the compound `CC[C@H](C)[C@H](NC(=O)[C@H](CC(N)=O)NC(=O)[C@@H](NC(=O)[C@H](CCC(N)=O)NC(=O)[C@@H]1CCCN1C(=O)[C@@H](NC(=O)[C@H](CCC(N)=O)NC(=O)[C@H](CCCNC(=N)N)NC(=O)CCCCCNC(=O)CCCC[C@@H]1SC[C@@H]2NC(=O)N[C@@H]21)[C@@H](C)O)C(C)C)C(=O)N[C@@H](CC(N)=O)C(=O)N1CCC[C@H]1C(=O)N[C@@H](Cc1ccccc1)C(=O)N[C@H](C(=O)N1CCC[C@H]1C(=O)N[C@@H](CC(=O)O)C(=O)N[C@@H](CO)C(=O)N[C@@H](CC(C)C)C(=O)N[C@@H](CC(C)C)C(=O)N[C@@H](CC(C)C)C(=O)N[C@@H](Cc1c[nH]cn1)C(=O)N[C@@H](CO)C(N)=O)[C@@H](C)O` [WEE1] (HELM PEPTIDE1{[O=C1N[C@H]2[C@H](CS[C@H]2CCCCC(=O)[*:2])N1].[O=C(CCCCCN[*:1])[*:2]].R.Q.T.P.Q.V.N.I.N.P.F.T.P.D.S.L.L.L.H.S.[am]}$$$$V2.0), the Kd (usually the concentration at which binding is half-saturated) at TXNL4B was 7.39 µM; on TXNRD3, 6.85 µM; at ASXL2 it was 5.55 µM. Further, the BI on TXNL4B (prey TXNL4B, MS7_Varjosalo) is 0.575; at TXNRD3 (prey TXNRD3, MS7_Varjosalo), 0.5933; on ASXL2 (prey ASXL2, MS7_Varjosalo), 0.643. In addition, the log2FC is on record as -1.234 on TXNL4B (prey TXNL4B, MS7_Varjosalo); -1.298 on TXNRD3 (prey TXNRD3, MS7_Varjosalo); -1.486 at ASXL2 (prey ASXL2, MS7_Varjosalo).
